# In US20250257055A1, “TERTIARY AMIDE DERIVATIVES SUBSTITUTED WITH 4-MEMBERED RING STRUCTURE” (Sumitomo Pharma Co., Ltd., priority 2024, published 2025):
# Like-named read-outs stand apart in the source and are kept apart here.
# Experiments:
# RMGI cells = test: Cell proliferation inhibition experiment using RMGI cells; assay type: cell-based; conditions: Homo sapiens, RMG-I, 144 h, cultured for 6 days, CellTiter-Glo
# Description: RMGI cells (derived from ovarian cancer) were obtained from JCRB cell bank. RMGI cells were cultured in Ham's F12 medium containing 10% fetal bovine serum and 1% penicillin/streptomycin under conditions of 37° C. and 5% CO2.
# 200 cells per well were seeded in a 384-well plate. One day after seeding, Examples 3, 7, 9, 10, 11, 20, and 23 to 25 were added so that the final concentration of DMSO was 0.1%, and the cells were cultured for 6 days. After the culture was completed, the cell viability was measured using CellTiter-Glo Luminescent Cell Viability Assay (Promega, G7570).
# Solubility test = assay type: physicochemical; conditions: aqueous buffer, thermodynamic from solid, 5° C., overnight
# Description: The solubility was measured for Examples 7, 10, 20, 23, 24, and 30 to 34, Comparative Example 1, and Comparative Example 2. The test compound was added to 10 mmol/L glycine buffer (pH 2.0) and 10 mmol/L citrate buffer (pH 3.0), and the mixture was stored in a thermostatic chamber at 5° C. After standing overnight, the mixture was filtered through a membrane filter, and the concentration of the filtrate was measured by HPLC.
# [1] = Membrane permeability test (PAMPA); assay type: in vitro ADME
# Procedure, shortened: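 Donor compartment held compound in system solution over a GIT Lipid-0 membrane, with sink buffer on the acceptor side; incubation 4 h at 37° C. Donor and acceptor concentrations were read by UV (190-500 nm), or by LC-MS for weakly absorbing compounds, and Pe (10^−6 cm/sec) was calculated.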
# G-401 xenograft [2] = test: Drug efficacy evaluation by oral administration using G-401 xenograft model mice; assay type: in vivo; conditions: for antitumor effect (in words): G-401 xenograft model, oral administration; for T/C: oral twice a day
# Description: (§1) G-401 cells (ATCC) were intradermally transplanted into 4-7-week-old BALB/cAnNCrj-nu/nu mice (CAnN.Cg-Foxn1/CrlCrlj, Jackson Laboratory Japan) at 5×10^5 cells/mouse. After confirming the engraftment of G-401 cells 10-40 days after transplantation, the test compound suspended in a solvent such as 0.5% methylcellulose solution was orally administered twice a day at a dose of 1-100 mg/kg. The tumor volume was measured over time from the start of administration, and the effect of tumor volume reduction by administration of the test compound was evaluated. The tumor volume can be calculated from the following equation using the minor axis and major axis of the tumor measured with an electronic caliper (Mitutoyo).
# A control administration group administered with only a solvent such as 0.5% methylcellulose solution and a test compound administration group were compared, and the antitumor effect was evaluated by calculating T/C from the following equation.
# G-401 xenograft [3] = test: Drug efficacy evaluation by intravenous administration using G-401 xenograft mice model; assay type: in vivo; conditions: for antitumor effect (in words): G-401 xenograft model, intravenous administration; for T/C: intravenous (tail vein), 14 days
# Description: as §1, with “as 10 mmol/L glycine buffer” for “as 0.5% methylcellulose”, “solution (pH 2.0)” for “solution”, “was” for “was orally”, “administered via the tail vein at least once” for “administered twice”, “a week” for “a day”, “of 0.015-20” for “of 1-100”
# A control administration group administered with only a solvent such as 10 mmol/L glycine buffer solution (pH 2.0) and a test compound administration group were compared, and the antitumor effect was evaluated by calculating T/C from the following equation.
# hDAT = hDAT (Homo sapiens (Human), UniProt Q01959); test: Dopamine receptor inhibitory activity evaluation (binding assay, CHO-S/hDAT membranes); conditions: CHO-S/hDAT membrane preparation
# Description: The binding evaluation assay was outsourced to Eurofins. Specifically, CHO-S/hDAT cells were homogenized in an incubation buffer consisting of 50 mmol/L Tris-HCl, pH 7.4, 100 mmol/L NaCl, 1 μmol/L Leupeptin, and 10 μmol/L PMSF. The membrane pellet obtained by centrifugation was resuspended in the incubation buffer to prepare a membrane preparation. The test compound (1-10 μmol/L DMSO solution), the membrane preparation, and 0.15 nmol/L […] were mixed and incubated at 4° C. for 180 minutes. The cell membrane-[^125I]RTI-55 complex was bound to a GF/B filter mat by vacuum filtration and washed with 50 mmol/L Tris-HCl, pH 7.4. The effect on the receptor was assessed by measuring radioactivity using a scintillation counter.
# hSERT = hSERT (Homo sapiens (Human), UniProt P31645); test: Serotonin receptor inhibitory activity evaluation (binding assay, HEK293/hSERT membranes); conditions: HEK293/hSERT membrane preparation, [3H]Paroxetin
# Description: The binding evaluation assay was outsourced to Eurofins. Specifically, HEK293/hSERT cells were homogenized in a buffer consisting of 100 mmol/L NaCl, 1 μmol/L Leupeptin, 10 μmol/L PMSF, and 50 mmol/L Tris-HCl (pH7.4). The membrane pellet obtained by centrifugation was resuspended in an incubation buffer consisting of 50 mmol/L Tris-HCl (pH 7.4), 120 mmol/L NaCl, and 5 mmol/L KCl to prepare a membrane preparation. The test compound (1-10 μmol/L DMSO solution), the membrane preparation, and 0.4 nmol/L [^3H]Paroxetin were mixed and incubated at 25° C. for 60 minutes. The cell membrane-[^3H]Paroxetin complex was bound to a GF/B filter mat by vacuum filtration and washed with 50 mmol/L Tris-HCl (pH 7.4). The effect on the receptor was assessed by measuring radioactivity using a scintillation counter.
# [4] = 10 mmol/L citrate buffer (pH 3.0), read-out: Solubility in pH 3.0 buffer
# [5] = 10 mmol/L glycine buffer (pH 2.0), read-out: Solubility in pH 2.0 buffer
# [6] = pH 5.0, 37° C., read-out: pH 5.0 Pe
# [7] = pH 7.4, 37° C., read-out: pH 7.4 Pe
# Sequence of hSERT (P31645 whole entry): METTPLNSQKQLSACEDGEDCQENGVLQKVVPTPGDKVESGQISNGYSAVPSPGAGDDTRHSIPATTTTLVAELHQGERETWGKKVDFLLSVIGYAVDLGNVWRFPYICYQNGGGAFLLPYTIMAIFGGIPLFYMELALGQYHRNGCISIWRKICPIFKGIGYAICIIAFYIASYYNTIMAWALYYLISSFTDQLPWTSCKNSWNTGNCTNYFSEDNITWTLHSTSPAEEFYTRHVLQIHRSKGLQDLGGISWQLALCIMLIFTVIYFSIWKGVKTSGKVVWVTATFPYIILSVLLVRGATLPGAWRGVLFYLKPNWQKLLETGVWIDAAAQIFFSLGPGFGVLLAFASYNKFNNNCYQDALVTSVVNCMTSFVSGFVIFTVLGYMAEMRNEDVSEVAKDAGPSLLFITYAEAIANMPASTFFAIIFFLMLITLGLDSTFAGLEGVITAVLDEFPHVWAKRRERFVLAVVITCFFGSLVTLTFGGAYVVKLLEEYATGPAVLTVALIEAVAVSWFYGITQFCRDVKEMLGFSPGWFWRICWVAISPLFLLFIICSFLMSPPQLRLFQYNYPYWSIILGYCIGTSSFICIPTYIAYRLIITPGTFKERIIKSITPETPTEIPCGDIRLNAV
# Sequence of hDAT (Q01959 whole entry): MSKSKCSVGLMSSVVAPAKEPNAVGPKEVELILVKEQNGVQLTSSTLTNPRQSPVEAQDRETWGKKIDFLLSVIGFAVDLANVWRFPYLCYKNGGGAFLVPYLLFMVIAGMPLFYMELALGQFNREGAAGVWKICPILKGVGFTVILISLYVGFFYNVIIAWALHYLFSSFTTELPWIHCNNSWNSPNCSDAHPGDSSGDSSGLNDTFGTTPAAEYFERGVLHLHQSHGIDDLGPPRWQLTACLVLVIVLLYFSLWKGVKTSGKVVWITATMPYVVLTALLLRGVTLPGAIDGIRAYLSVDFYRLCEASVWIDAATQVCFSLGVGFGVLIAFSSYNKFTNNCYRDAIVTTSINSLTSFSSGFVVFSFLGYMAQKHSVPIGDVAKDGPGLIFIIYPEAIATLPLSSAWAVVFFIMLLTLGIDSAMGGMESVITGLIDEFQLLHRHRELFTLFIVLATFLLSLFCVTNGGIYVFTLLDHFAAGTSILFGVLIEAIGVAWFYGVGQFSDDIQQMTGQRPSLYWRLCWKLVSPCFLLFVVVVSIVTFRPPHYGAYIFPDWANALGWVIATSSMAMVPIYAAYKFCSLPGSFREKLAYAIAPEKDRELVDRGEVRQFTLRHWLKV
solubility (Solubility test; [4]) [µg/mL],solubility (Solubility test; [5]) [µg/mL],"Papp at 4 h [1, 6] [×10⁻⁶ cm/s]","Papp at 4 h [1, 7] [×10⁻⁶ cm/s]",inhibition at 10 µM (hDAT) [%],inhibition at 10 µM (hSERT) [%],SMILES,IC50 (RMGI cells) [nM],antitumor effect (in words) (G-401 xenograft [2]),"T/C (G-401 xenograft [2]; 10 mg/kg, 34 days) [%]","T/C (G-401 xenograft [2]; 30 mg/kg, 34 days) [%]",antitumor effect (in words) (G-401 xenograft [3]),T/C (G-401 xenograft [3]; 20 mg/kg) [%],"T/C (G-401 xenograft [2]; 3 mg/kg, 21 days) [%]","T/C (G-401 xenograft [2]; 10 mg/kg, 21 days) [%]",T/C (G-401 xenograft [3]; 10 mg/kg) [%],"T/C (G-401 xenograft [2]; 20 mg/kg, 21 days) [%]","T/C (G-401 xenograft [2]; 30 mg/kg, 21 days) [%]"
4600,> 10000,3,5.1,7,-1,"O=C1N[C@]2(C[C@@H](F)c3cc(-c4cnn(C5CN(C6COC6)C5)c4)ccc32)C(=O)N1CC(=O)N(Cc1ccc(F)cn1)C1(C(F)(F)F)COC1 [Example 7, 2-[(1′S,3′R)-3′-fluoro-5′-{1-[1-(oxetan-3-yl)azetidin-3-yl]-1H-pyrazol-4-yl}-2,5-dioxo-2′,3′-dihydrospiro[imidazolidine-4,1′-inden]-1-yl]-N-[(5-fluoropyridin-2-yl)methyl]-N-[3-(trifluoromethyl)oxetan-3-yl]acetamide]",35,strong antitumor effects,31,80,strong antitumor effects,40,,,,,
8600,> 10000,3.2,7,7,3,"O=C1N[C@]2(C[C@@H](F)c3cc(-c4cnn(C5CCN(C6COC6)CC5)c4)ccc32)C(=O)N1CC(=O)N(Cc1ccc(F)cn1)C1(C(F)(F)F)COC1 [Example 23, 2-[(1′S,3′R)-3′-fluoro-5′-{1-[1-(oxetan-3-yl)piperidin-4-yl]-1H-pyrazol-4-yl}-2,5-dioxo-2′,3′-dihydrospiro[imidazolidine-4,1′-inden]-1-yl]-N-[(5-fluoropyridin-2-yl)methyl]-N-[3-(trifluoromethyl)oxetan-3-yl]acetamide]",54,strong antitumor effects,,,strong antitumor effects,54,,,,81,
> 10000,> 10000,1.6,8.2,6,15,"CN1CC(N(Cc2ccc(F)cn2)C(=O)CN2C(=O)N[C@]3(C[C@@H](F)c4cc(-c5cnn(C6COC6)c5)ccc43)C2=O)(C(F)(F)F)C1 [Example 24, 2-{(1′S,3′R)-3′-fluoro-5′-[1-(oxetan-3-yl)-1H-pyrazol-4-yl]-2,5-dioxo-2′,3′-dihydrospiro[imidazolidine-4,1′-inden]-1-yl}-N-[(5-fluoropyridin-2-yl)methyl]-N-[1-methyl-3-(trifluoromethyl)azetidin-3-yl]acetamide]",37,,,,strong antitumor effects,44,,,,,

SMILES,solubility (Solubility test; [4]) [µg/mL],solubility (Solubility test; [5]) [µg/mL],"Papp at 4 h [1, 6] [×10⁻⁶ cm/s]","Papp at 4 h [1, 7] [×10⁻⁶ cm/s]",inhibition at 10 µM (hDAT) [%],inhibition at 10 µM (hSERT) [%],IC50 (RMGI cells) [nM],antitumor effect (in words) (G-401 xenograft [2]),"T/C (G-401 xenograft [2]; 10 mg/kg, 34 days) [%]","T/C (G-401 xenograft [2]; 30 mg/kg, 34 days) [%]",antitumor effect (in words) (G-401 xenograft [3]),T/C (G-401 xenograft [3]; 20 mg/kg) [%],"T/C (G-401 xenograft [2]; 3 mg/kg, 21 days) [%]","T/C (G-401 xenograft [2]; 10 mg/kg, 21 days) [%]",T/C (G-401 xenograft [3]; 10 mg/kg) [%],"T/C (G-401 xenograft [2]; 20 mg/kg, 21 days) [%]","T/C (G-401 xenograft [2]; 30 mg/kg, 21 days) [%]"
"CN1CC(N(Cc2ccc(F)cc2)C(=O)CN2C(=O)N[C@]3(C[C@@H](F)c4cc(-c5cnn(C)c5)ccc43)C2=O)(C(F)(F)F)C1 [Example 10, 2-[(1′S,3′R)-3′-fluoro-5′-(1-methyl-1H-pyrazol-4-yl)-2,5-dioxo-2′,3′-dihydrospiro[imidazolidine-4,1′-inden]-1-yl]-N-[(4-fluorophenyl)methyl]-N-[1-methyl-3-(trifluoromethyl)azetidin-3-yl]acetamide]",1600,> 10000,23.9,28.6,6,-5,6,strong antitumor effects,,,strong antitumor effects,,53,102,73,,
"CN1CC(N(Cc2ccc(F)cn2)C(=O)CN2C(=O)N[C@]3(C[C@@H](F)c4cc(-c5cnn(C)c5)ccc43)C2=O)(C(F)(F)F)C1 [Example 20, 2-[(1′S,3′R)-3′-fluoro-5′-(1-methyl-1H-pyrazol-4-yl)-2,5-dioxo-2′,3′-dihydrospiro[imidazolidine-4,1′-inden]-1-yl]-N-[(5-fluoropyridin-2-yl)methyl]-N-[1-methyl-3-(trifluoromethyl)azetidin-3-yl]acetamide]",8600,> 10000,7.8,21.9,46,-1,43,strong antitumor effects,,,strong antitumor effects,,,,53,80,89
